Test results taken from article PMC7155420 (2020).

Experiments:
[1] = tested on: r(CGGx6); GGx6 (RNA, repeat) GGAGAGGGUUUAAUCGGCGGCGGCGGCGGCGGUACGAAAGUACGGCGGCGGCGGCGGCGGAUUGGAUCCGCAAGG; assay: ITC, two-mode fit; details: K+ (10 mM potassium phosphate); 298 K; highest-affinity site
[2] = tested on: r(CGGx1); GGx1; (5'CGG/3'GCC) x 1 in Table S1 (RNA, mismatch bulge abasic) GGAGAGGGUUUAAUCGGUACGAAAGUACGGAUUGGAUCCGCAAGG; assay: CD melting, 267 nm; details: K+ (50 mM KCl, 10 mM potassium phosphate); 10 µM RNA; drug/nucleic acid ratio up to 2.0; 1 °C/min; per base
[3] = tested on: r(CGGx6); GGx6 (RNA, repeat) GGAGAGGGUUUAAUCGGCGGCGGCGGCGGCGGUACGAAAGUACGGCGGCGGCGGCGGCGGAUUGGAUCCGCAAGG; assay: CD melting, 267 nm; details: K+ (50 mM KCl, 10 mM potassium phosphate); 10 µM RNA; drug/nucleic acid ratio up to 2.0; 1 °C/min; per base
[4] = tested on: r(CGGx1); GGx1; (5'CGG/3'GCC) x 1 in Table S1 (RNA, mismatch bulge abasic) GGAGAGGGUUUAAUCGGUACGAAAGUACGGAUUGGAUCCGCAAGG; assay: fluorescence titration (curcumin fluorescence), two-mode fit; details: 50 mM KCl (general buffer); 10 mM phosphate, pH 7.0, 25 °C; stronger of two sites
[5] = tested on: r(CGGx6); GGx6 (RNA, repeat) GGAGAGGGUUUAAUCGGCGGCGGCGGCGGCGGUACGAAAGUACGGCGGCGGCGGCGGCGGAUUGGAUCCGCAAGG; assay: as above; details: 50 mM KCl (general buffer); 10 mM phosphate, pH 7.0, 25 °C; stronger of two sites

COc1cc(/C=C/C(=O)CC(=O)/C=C/c2ccc(O)c(OC)c2)ccc1O
Ka [1]: 1.7 × 10^6 M^–1
ΔTm [2]: 1.49 °C
ΔTm [3]: 3.48 °C
Kd1 [4]: 0.12 ± 0.02 µM
Kd1 [5]: 0.092 ± 0.004 µM
